Test results: US4328235A, “Suppressing pain with benzothiazol-2(3H)-ones” (Boehringer Ingelheim GmbH, priority 1979, dated 1982)
Where two headings read alike, the source gives them in different places.

Key:
[1] = tested on: body temperature of Chbb:THOM-rats; assay: Antipyretic activity (rectal body temperature of rats); type: in vivo, rat; settings: for ED (-1.5 degC): Rattus norvegicus, po, read-out: ED-1.5° C. (dose which decreases the body temperature by 1.5° C.)
Method: The test substances were administered as a trituration in a 1% methyl cellulose in portions of 1.0 ml/100 g of animal using an oesophageal tube.
From the values for the average maximum decline of temperature, which were gained after the administration of the different doses of the test substances, and after a linear regression analysis according to LINDER, an ED-1.5° C. was calculated with the confidence limits according to FIELLER as the dose which decreases the body temperature by 1.5° C.

[2] = Acute toxicity in mice; settings: mouse, in vivo, po; Chbb-NMRI (SPF)-mice of both sexes, oesophageal tube, deaths within 14 days
Method: The acute toxicity was determined in Chbb-NMRI (SPF)-mice of both sexes, having an average body weight of 20 grams. The test compounds were administered as a trituration in 1% methyl cellulose (0.5 ml/10 g of animal) by means of an oesophageal tube. The calculation of the LD50 values was effected according to the method of LITCHFIELD and WILCOXON [J. Pharmacol. Exp. Ther., 96. 99 (1949)], based on the percentage of animals which died within 14 days after administration of different doses.

[3] = tested on: Pain of Inflammation on the Back Paw of the Rat; assay: Randall-Selitto test (pain of inflammation, yeast oedema, back paw of the rat); type: in vivo; settings: po, 0.75 h, read-out: ED50 (dose which increased the pain threshold by 50%)
Method: The activity against the pain caused by inflammation was tested according to the method of RANDALL-SELITTO [Arch. Int. […] After a further 45 minutes the pain threshold was determined in the animals treated with the test compound and in the control animals treated only with the vehicle.

[4] = tested on: Sensitivity of the Mouse in the Hot Plate Test; assay: Hot plate test (sensitivity of the mouse, increase of reaction time); type: in vivo; settings: po, read-out: ED100 (dose which increased the time of reaction by 100%)
Method: The test substances were administered as trituration in 1% methyl cellulose (0.1 ml/10 g of mouse) by means of an oesophageal tube.
Before treatment with the test substances, the animals were twice put on the hot plate at an interval of 30 minutes, whereby their individual times of reaction were measured. After treatment with a test substance, the times of reaction of the animals were again measured in an interval of 30 minutes.

[5] = tested on: methemoglobin; assay: Determination of the level of methemoglobin in the cat; type: in vivo; settings: oesophageal tube
Method: The test substances were administered to cats of both sexes having an average body weight of 2.5 kg, as a trituration in 1% methyl cellulose using an oesophageal tube (2 ml/kg; the oesophageal tube was cleared in situ by aqua bidestillata). After a single application blood-tests were taken by heart-punctuation at different times, that is, at 3 hours, 5 hours, 24 hours, and 48 hours after administration. The photometric registration of the spectrum of hemoglobin as well as the determination of the content of hemoglobin in comparison to controls were effected according to the method of LEMBERG and LEGGE [Hematin Compounds and Bile Pigments, Interscience Publishers, New York (1949)].

[6] = literature: W. Nimmich, Pharmazie, 19, (4), 281 (1964); cited from earlier work
[7] = 50 mg/kg, 3 hours after administration
[8] = 50 mg/kg, 5 hours after administration
[9] = 50 mg/kg, 24 hours after administration
[10] = 100 mg/kg, 3 hours after administration
[11] = 100 mg/kg, 5 hours after administration
[12] = 100 mg/kg, 24 hours after administration
[13] = 200 mg/kg, 3 hours after administration
[14] = 200 mg/kg, 5 hours after administration
[15] = 200 mg/kg, 24 hours after administration
[16] = Chbb:THOM-rats, oesophageal tube
[17] = male Chbb:THOM-rats, oesophageal tube, 45 minutes after administration
[18] = male Chbb:NMRI (SPF)-mice, oesophageal tube, hot plate 52° C.

| SMILES | LD50 at 336 h [2] [mg/kg] | Average value of methemoglobin [5, 7] | Average value of methemoglobin [5, 8] | Average value of methemoglobin [5, 9] | Average value of methemoglobin [5, 10] | Average value of methemoglobin [5, 11] | Average value of methemoglobin [5, 12] | Average value of methemoglobin [5, 13] | Average value of methemoglobin [5, 14] | Average value of methemoglobin [5, 15] | ED (-1.5 degC) [1, 16] [mg/kg] | ED50 [3, 17] [mg/kg] | ED100 [4, 18] [mg/kg] | other results |
| --- | --- | --- | --- | --- | --- | --- | --- | --- | --- | --- | --- | --- | --- | --- |
| CCOc1ccc(NC(C)=O)cc1 [D, Phenacetin, reference compound] | 1460 | 19.6 % of total hemoglobin | 9.8 % of total hemoglobin | 0.5 % of total hemoglobin | 32.0 % of total hemoglobin | 35.8 % of total hemoglobin | 0.5 % of total hemoglobin | 36.0 % of total hemoglobin | 46.6 % of total hemoglobin | 15.4 % of total hemoglobin |  |  |  | ED (-1.5 degC) [1]: 34.4 mg/kg; Antipyretic activity (in words) ([1]; rat, in vivo): an antipyretic activity; ED50 [3]: 274 mg/kg; ED100 [4]: 328 mg/kg; Average value of methemoglobin ([5]; 25 mg/kg, 3 hours after administration): 1.9 % of total hemoglobin; Average value of methemoglobin ([5]; 25 mg/kg, 5 hours after administration): 0.4 % of total hemoglobin; Average value of methemoglobin ([5]; 200 mg/kg, 48 hours after administration): 1.1 % of total hemoglobin |
| CCOc1ccc2[nH]c(=O)sc2c1 [A, 6-Ethoxy-benzothiazol-2(3H)-one] | 1200 | 0.3 % of total hemoglobin | 0.5 % of total hemoglobin | 1.1 % of total hemoglobin | 0.4 % of total hemoglobin | 0.1 % of total hemoglobin | 0.3 % of total hemoglobin | 1.0 % of total hemoglobin | 0.4 % of total hemoglobin | 0.5 % of total hemoglobin | 84.3 | 64.3 | 154 |  |
| O=c1[nH]c2ccccc2s1 [Example 2, Benzothiazol-2(3H)-one] |  |  |  |  |  |  |  |  |  |  |  |  |  | Antimicrobial and fungistatic activity [6]: antimicrobial and fungistatic acitivity |
| Cc1ccc2[nH]c(=O)sc2c1 [C, 6-Methyl-benzothiazol-2(3H)-one] | 2160 |  |  |  | 4.0 % of total hemoglobin | 2.4 % of total hemoglobin | 0.1 % of total hemoglobin | 13.6 % of total hemoglobin | 13.7 % of total hemoglobin | 0.4 % of total hemoglobin | 30.9 | 54.4 | 144 |  |
| COc1ccc2nc(O)sc2c1 [B, 6-Methoxy-benzothiazol-2(3H)-one] | 1280 |  |  |  | 4.6 % of total hemoglobin | 3.5 % of total hemoglobin | 0.0 % of total hemoglobin | 8.1 % of total hemoglobin | 11.7 % of total hemoglobin | 0.0 % of total hemoglobin | 66.8 | 142 | 122 |  |
